Counter-ions that a name gives are not always drawn. Like-named read-outs stand apart in the source and are kept apart here.
Test: MIC of test compounds against various organisms
Assay type: cell-based, S. aureus, S. pneumoniae, H. influenzae, E.faecalis
Experimental: The MIC (μg/ml) of test compounds against various organisms was determined: S. aureus Oxford, S. aureus WCUH29, S. pneumoniae 1629, S. pneumoniae N1387, S. pneumoniae ERY 2, H. influenzae Q1, E.faecalis 1.

[1] = against one or more of S. aureus Oxford, S. aureus WCUH29, S. pneumoniae 1629, S. pneumoniae N1387, S. pneumoniae ERY 2, H. influenzae Q1, E.faecalis 1 (gram positive and gram negative bacteria), read-out: MIC

Compound | MIC [µg/mL] | MIC [1] [µg/mL]
COc1ccc2nccc([C@@H](O)CN3CCC(NCc4ccc5c(c4)NC(=O)C(C)S5)CC3)c2c1 (mixture of isomers) [Example 21, 6-({1-[(R)-2-Hydroxy-2-(6-methoxy-quinolin-4-yl)-ethyl)-piperidin-4-ylamino}-methyl)-2-(R/S)-methyl-4H-benzo[1,4]thiazin-3-one dioxalate] | ≤ 2 | –
COc1ccc2nccc([C@@H](O)CN3CCC(NCc4ccc5c(c4)NC(=O)CO5)CC3)c2c1 [Example 5, 6-({1-[(R)-2-Hydroxy-2-(6-methoxy-quinolin-4-yl)-ethyl]-piperidin-4-ylamino}-methyl)-4H-benzo[1,4]oxazin-3-one dioxalate] | ≤ 2 | –
COc1ccc2nccc([C@@H](O)CN3CCC(NCc4ccc5c(c4)NC(=O)CS5)CC3)c2n1 [Example 16, 6-({1-[(R)-2-Hydroxy-2-(6-methoxy-[1,5]naphthyridin-4-yl)-ethyl]-piperidin-4-ylamino}-methyl)-4H-benzo[1,4]thiazin-3-one dioxalate] | ≤ 0.125 | –
COc1ccc2nccc([C@@H](O)CN3CCC(NS(=O)(=O)c4ccc5c(c4)NC(=O)CCS5)CC3)c2n1 [Example 17, 4-Oxo-2,3,4,5-tetrahydro-benzo[b][1,4]thiazepine-7-sulfonic acid {1-[(R)-2-hydroxy-2-(6-methoxy-[1,5]naphthyridin-4-yl)-ethyl]-piperidin-4-yl}-amide oxalate] | ≤ 2 | –
COc1ccc2nccc([C@@H](O)CN3CCC(NCc4cc5c(cc4[N+](=O)[O-])OCO5)CC3)c2c1.O=C(O)C(=O)O.O=C(O)C(=O)O [Example 18, (R)-1-(6-Methoxy-quinolin-4-yl)-2-{4-[(6-nitro-benzo[1,3]dioxol-5-ylmethyl)-amino]-piperidin-1-yl}-ethanol dioxalate] | – | ≤ 0.125
COc1ccc2nccc([C@@H](O)CN3CCC(NCc4ccc5c(n4)OCCO5)CC3)c2c1 [Example 19, (R)-2-{4-[(2,3-Dihydro-[1,4]dioxino[2,3-b]pyridin-6-ylmethyl)-amino]-piperidin-1-yl}-1-(6-methoxy-quinolin-4-yl)-ethanol dioxalate] | ≤ 0.125 | –
COc1ccc2nccc([C@@H](O)CN3CCC(NCc4cnc5c(c4)NC(=O)CS5)CC3)c2c1 [Example 20, 7-({1-[(R)-2-Hydroxy-2-(6-methoxy-quinolin-4-yl)-ethyl]-piperidin-4-ylamino}-methyl)-1-H-pyrido[2,3-b][1,4]thiazin-2-one dioxalate] | – | ≤ 2

— patent publication US7205408B2, “Quinolines and nitrogenated derivative thereof substituted in 4-position by a piperidine-containing moiety and their use as antibacterial agents” (priority 1920, dated 2007)
